# Results reported in patent US10532085B2, “Methods for increasing intracellular activity of Hsp70” (Orphazyme A/S, priority 2010, dated 2020).
# What was measured:
# [1] = Liposome 90° light scattering, LUVs with negatively charged lipids; type: binding; conditions: neutral pH; irrespective of charge density (−1 to −2)
# From the text: Thus, we investigated the interaction of Hsp70 with palmitoyl-oleoyl-phosphatidylcholine (POPC) large unilamellar vesicles (LUVs) containing various membrane-associated anionic lipids, i.e. palmitoyl-oleoyl-phosphatidylserine (POPS; primarily in plasma membrane), cardiolipin (primarily mitochondrial) and BMP (primarily in late endosomes/lysosomes). Taking into account the increasingly acidic milieu of the endo-lysosomal compartment upon maturation to lysosomes, we compared the protein-lipid interactions in neutral (pH 7.4) and acidic (pH 6.0) conditions. […] As reported earlier for POPS, all negatively charged lipids enhanced the binding of rHsp70 to the liposomes at neutral pH approximately 4-fold irrespective of the charge density on the liposome surface (ranging from −1 to −2).
# The tryptophan fluorescence spectra (RFI) and liposome 90° light scattering (RSI) were analyzed in a HEPES buffer (20 mM HEPES, 0.1 mM EDTA, pH 7.4 or 6.0 as indicated) employing LUVs consisting of indicated lipids essentially as described in the art. For the RFI, LUVs were added in 10 μM aliquots and spectra recorded after a 20 min stabilization period. For the RSI, recombinant proteins were added in 0.12 nmol aliquots.
# [2] = tested on: primary fibroblasts from Mucopolysaccharidosis type IIIA patients; experiment: Volume of Acidic Compartment (VAC) by FACS, MPS IIIA fibroblasts; type: cell-based, human; conditions: added for 48 h, MPSIIIA GM00879
# Procedure: (§1) FIG. 10: Test of rhHSP70 in non-sphingolipidosis. rhHSP70 was added for 48 h to primary fibroblasts from Sandhoff Disease and Mucopolysaccharidosis type IIIA (aka Sanfilippo type IIIA) patients (Coriell Cell Repository ID: Sandhoff: GM11098, MPSIIIA: GM00879). Ctrl=Normal Control fibroblasts. Read-out: Volume of Acidic Compartment (VAC) (Primary cellular pathology), performed by FACS.
# [3] = tested on: primary fibroblasts from Sandhoff Disease patients; experiment: Volume of Acidic Compartment (VAC) by FACS, Sandhoff fibroblasts; type: cell-based, human; conditions: added for 48 h, Sandhoff GM11098
# Procedure: as §1
# [4] = tested on: primary fibroblasts from Niemann-Pick Disease type A patient; experiment: Lysosomal cross-sectional area in NPDA patient fibroblasts; type: cell-based, Human; conditions: pulse-chase, added at T=0, measured at 24 h, 48 h, 72 h and 1 week; patient id 83/24; effect reversible
# Procedure: FIG. 5: Pulse-Chase experiment. rhHSP70 (recombinant human HSP70) was added to primary fibroblasts from Niemann-Pick Disease type A patient (patient id: 83/24) at T=0, measurements of lysosomal cross-sectional area were performed at 24 h, 48 h, 72 h and 1 week after administration. […] Conclusion: The effect of rhHSP70 is reversible and lasts ca. 1 week.
# FIG. 6: Arimoclomol dose-titration experiment. Various concentrations of Arimoclomol (‘Ari’) added for 48 h to primary fibroblasts from Niemann-Pick Disease type A patient (patient id: 83/24). Read-out: lysosomal cross-sectional area.
# [5] = tested on: primary fibroblasts from Mucopolysaccharidosis type IIIA patient; experiment: Lysosomal cross-sectional area, laser confocal microscopy, MPS IIIA fibroblasts; type: cell-based, human; conditions: Alexa Fluor 488 labelled, added for 48 h; GM00879
# Procedure: FIG. 8: Test of rhHSP70 in non-sphingolipidosis. rhHSP70 labelled with Alexa Fluor 488 (for visualization of uptake) was added for 48 h to primary fibroblasts from Mucopolysaccharidosis type IIIA (aka Sanfilippo type IIIA) patient (Coriell Cell Repository ID: GM00879). Read-out: lysosomal cross-sectional area (Primary cellular pathology), performed by laser confocal microscopy.
# ASM = biological target: T1, ASM (Homo sapiens, UniProt P17405); experiment: BIAcore: binding of ASM to BMP-containing LUVs after rHsp70 pretreatment
# T1 construct: made in house
# T1 sequence (P17405 47-631): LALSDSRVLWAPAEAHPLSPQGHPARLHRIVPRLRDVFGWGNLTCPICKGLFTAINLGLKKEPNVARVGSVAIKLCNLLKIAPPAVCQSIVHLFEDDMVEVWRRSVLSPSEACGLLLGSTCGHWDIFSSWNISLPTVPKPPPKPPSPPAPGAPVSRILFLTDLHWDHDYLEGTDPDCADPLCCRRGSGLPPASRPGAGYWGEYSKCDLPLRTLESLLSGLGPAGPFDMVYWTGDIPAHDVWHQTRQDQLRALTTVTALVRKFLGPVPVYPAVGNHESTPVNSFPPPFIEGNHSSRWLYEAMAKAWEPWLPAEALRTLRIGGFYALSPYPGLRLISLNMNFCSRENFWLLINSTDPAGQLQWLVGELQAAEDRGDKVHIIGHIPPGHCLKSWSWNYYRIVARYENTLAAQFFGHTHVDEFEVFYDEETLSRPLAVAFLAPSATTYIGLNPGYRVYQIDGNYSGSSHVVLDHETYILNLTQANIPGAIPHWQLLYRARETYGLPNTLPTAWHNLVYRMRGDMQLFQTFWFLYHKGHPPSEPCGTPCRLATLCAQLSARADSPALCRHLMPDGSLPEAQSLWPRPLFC
# From the text: BMP binds ASM with high affinity and stimulates its ability to hydrolyze sphingomyelin to ceramide and phosphorylcholine. […] In order to test whether ASM is responsible for the lysosome stabilizing effect we treated the cells with desipramine, a well characterized pharmacological ASM inhibitor. […] It should be noted that akin to rHsp70, also rASM localized to the lysosomes.
# For preparation of LUVs a lipid mixture consisting of 10 mol % sphingomyelin, 50 mol % phosphatidylcholine, 20 mol % cholesterol and 20 mol % BMP dissolved in organic solvents, was dried under a stream of argon and rehydrated in Tris/HCl buffer (pH 7.4). The mixture was freeze-thawed nine times in liquid nitrogen and then in an incubator at 37° C. After ultrasound bath for 15 min the mixture was passed 21 times through a polycarbonate membrane with a pore diameter of 100 nm. Surface plasmon resonance measurements were performed using a BIAcore 2000 system at 25° C. LUVs (total lipid concentration 0.1 mM) were immobilized on the surface of a L1 sensor chip (BIAcore) in PBS (loading buffer). The running buffer used was sodium acetate buffer (50 mM, pH 4.5). As a control, acid sphingomyelinase (0.2 μM, 60 μl in running buffer) was injected directly on the liposome surface. Response units between 4100 RU—5250RU were obtained. […]
substance,measurement,setting,value
rHsp70: recombinant (human) heat shock protein 70; in some tests labelled with Alexa Fluor 488,enhancement of binding to liposomes by negatively charged lipids,[1],approximately 4 fold
same,Volume of Acidic Compartment (VAC),[2],effectively reverts the lysosomal primary pathology
same,Volume of Acidic Compartment (VAC),[3],effectively reverts the lysosomal primary pathology
same,duration of the effect on lysosomal cross-sectional area,[4],ca. 1 week
same,lysosomal cross-sectional area (primary cellular pathology),[5],effectively reverts the lysosomal primary pathology
same,subsequent binding of ASM to BMP-containing LUVs,ASM; higher rHsp70 concentrations,inhibitory effect
same,subsequent binding of ASM to BMP-containing LUVs,ASM; pretreatment with rHsp70 at sub-equimolar concentrations,facilitated the subsequent binding of ASM
